Read-outs that look alike come from different tables or passages of the source.

Data set [1] is described as follows: Pharmacokinetics in cynomolgus monkeys. To be noted: cynomolgus monkey, in vivo.
A short description of data set [2]: Pharmacokinetics in C57 mice. To be noted: mouse, in vivo. Here is the method: After subcutaneous or intravenous administration to C57 mice, plasma is collected and the drug concentration in plasma is determined to illustrate the in vivo pharmacokinetic properties of the compound according to the present invention. […] 20.0 μL of thawed plasma sample is taken. 20 μL of 50% aqueous methanol solution (containing 100 ng mL^−1 internal standard) and 60 μL of acetonitrile are added sequentially to precipitate protein. The mixture is vortexed for 5 minutes, and centrifuged at 3700 rpm for 8 minutes. 50.0 μL of the supernatant is taken, into which 50.0 μL of 0.5% aqueous formic acid solution is added. The mixture is vortexed for 5 minutes. 50 μL of the mixture solution is sampled and injected into the LC-MS/MS to determine the drug concentration in plasma.

Data set [3] is described as follows: Pharmacokinetics following single administration in SD rat. Conditions: in vivo, sc, 50 nmol/kg. Further details: species or system SD rats. In outline: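 Male SD rats (230–268 g, n=3) dosed once at 50.0 nmol/kg s.c. or 25.0 nmol/kg i.v. Plasma protein precipitated with acetonitrile containing internal standards; drug concentration measured by LC-MS/MS.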
Data set [4] is classed as in vivo. Conditions: rat, in vivo, male SD rats. Here is the method: (§1) 77 SD male rats (SPF grade) are selected and randomly divided into 10 groups based on body weight. Group 1 is the vehicle control group, including 5 animals. […] Group 5 to Group 7 are the groups administrated with the test substance 1; and Group 8 to Group 10 are the groups administrated with the test substance 2, each group including 8 animals, wherein 5 animals for primary test, and 3 animals for toxicokinetics test, and the administration dose is 1, 3 and 10 mg/kg respectively. Each of the above groups is continuously administered twice a week for 2 weeks (administrating at Day 1, Day 5, Day 8, Day 12 and Day 15).
(§2) During the experiment, the cage condition monitoring, detailed clinical observations, determination of the food consumption, determination of body weight, measurement of the blood biochemical and hematology indicator, investigation of the gross anatomy, weighing of the organ, studying on toxicokinetic are performed on all the groups of the animals.
(§3) Original data during each time period is tabulated. The average values and standard deviations and/or group change are calculated for each assay endpoint based on the group and sex. For each endpoint, the administrated group will be compared with the control group in the following aspect. A logarithmic conversion is performed to the endpoint data as desired prior to the start of the specific analyses.

A further data set relates to SD male rats. The class given is in vivo. Here is the method: as §1, §2, §3
For data set [5] the following is noted: in vivo.
Data set [6] can be described thus: Pharmacokinetics in beagle dogs. The class given is in vivo. To be noted: 0.05 mg/kg. How it is done:
After subcutaneous administration to beagle dogs, plasma is collected and the drug concentration in plasma is determined to illustrate the in vivo pharmacokinetic properties of the compound according to the present invention. The compound of the present invention is administered to a beagle dog (7-9 kg) at a dose of 0.05 mg/kg subcutaneously (s.c.). About 500 μL of whole blood is collected from the saphenous vein into an EDTA-K2 anticoagulant tube at predose, 0.5 hours, 1 hour, 2 hours, 6 hours, 10 hours, 24 hours, 48 hours, 72 hours and 96 hours, respectively. The blood samples are centrifuged at 3000 g and at 2° C. to 8° C. for 10 minutes to obtain plasma, which is stored at −90° C. to −60° C. for further analysis and assay.
20.0 μL of thawed plasma sample is taken. […] Then 120 μL of 0.1% formic acid methanol is added to precipitate the protein. The mixture is vortexed for 5 minutes, and centrifuged at 4815 g for 10 minutes. 100.0 μL of the supernatant is taken, into which 100 μL of 0.5% aqueous formic acid solution is added. The mixture is vortexed for 5 minutes. 10 μL of the mixture solution is sampled and injected into the LC-MS/MS to determine the drug concentration in plasma.
Based on the drug concentration in plasma of the compound in the beagle dogs, the pharmacokinetic parameters are calculated by applying the software Winnolin 8.3 in a non-compartmental model.

For another data set, the system named is db/db mice. The experiment in a line: Pharmacodynamics in db/db mice, single subcutaneous administration (blood glucose). The class given is in vivo. To be noted: Group 2, single s.c. 10 nmol/kg, longest time with random blood glucose P<0.05 vs. vehicle. Here is the method: The “inhibition of blood glucose AUC” as disclosed in the present invention is the reduction percentage of blood glucose AUC in the group taken the test compound as compared with the group taken the Vehicle. Inhibition of blood glucose AUC=(blood glucose AUCVehicle-blood glucose AUCtest compound)/blood glucose AUCVehicle.
In this study, 8-9 week old male db/db mice are used. The db/db mice are placed in an individual ventilated cage (IVC) facility with a controlled temperature (20-26° C.) and humidity (40-70%) and a controlled 12h: 12 h light-dark cycle. The mice received food and water ad libitum. Blood is sampled at the tail tip, and the fasting blood glucose is measured by a Roche blood glucose meter. The mice are randomly divided into groups according to the initial blood glucose and initial body weight (n=6/group), and each group had similar body weight and blood glucose.
After a single subcutaneous administration, the random blood glucoses are recorded at the set time point (0 to 120 hours, the recording of the random blood glucose is stopped until there is no difference between the random blood glucose of the compound and that of the vehicle group), and the daily body weight and food intake are also recorded. The data results are statistically analyzed using GraphPad Prism8, and the statistical differences among the groups are analyzed following a T-Test. […]

A further data set has as its target T1, human GLP-1 receptor (Homo sapiens, UniProt P43220).
T1 construct: expressed in transfected cells; crude membranes
Kind of data set: In vitro binding activity to human GLP-1 receptor ([125I]GLP-1, crude cellular membranes). To be noted: ratio of the Ki value of the endogenous ligand to the Ki value of the test compound; larger = stronger binding. Here is the method: 89 μL of membrane dissolved in binding buffer (50 mM Hepes, pH 7.4, 5 mM MgCl2, 5 mM EDTA, 0.005% TWEEN, 0.005% HSA) is transferred to a 96-well test plate (5 μg/well). The compound is serially diluted in DMSO, and then, 1 μL of the diluted compound or 100% DMSO is added to the test plate containing the membrane solution. 10 μL of [^125I] […] The test plate is left at room temperature for 90 minutes. The membrane complexes are harvested into a GF/B plate pre-coated with 0.5% PEI by using a Cell Harvester, and washed for 3 times with 500 μL of pre-cooled elution buffer (50 mM Hepes, pH 7.4, 500 mM NaCl) at 4° C. After drying at 37° C. for 2 hours, 50 μL of scintillation fluid is added to each well. The plate is read with a MicroBeta2 scintillation counter after sealing and settling for at least 1 hour so as to determine the membrane bound radioligand level.
The absolute IC50 concentration of the compound is derived by non-linear regression of the binding percent of [^125I] […] The IC50 concentration is converted to Ki (Ki is the inhibition constant) using the Cheng-Prusoff equation.

[7] abbreviates: male SD rats, twice a week for 2 weeks, 1, 3, 10 mg/kg.

T1 sequence (P43220 24-463): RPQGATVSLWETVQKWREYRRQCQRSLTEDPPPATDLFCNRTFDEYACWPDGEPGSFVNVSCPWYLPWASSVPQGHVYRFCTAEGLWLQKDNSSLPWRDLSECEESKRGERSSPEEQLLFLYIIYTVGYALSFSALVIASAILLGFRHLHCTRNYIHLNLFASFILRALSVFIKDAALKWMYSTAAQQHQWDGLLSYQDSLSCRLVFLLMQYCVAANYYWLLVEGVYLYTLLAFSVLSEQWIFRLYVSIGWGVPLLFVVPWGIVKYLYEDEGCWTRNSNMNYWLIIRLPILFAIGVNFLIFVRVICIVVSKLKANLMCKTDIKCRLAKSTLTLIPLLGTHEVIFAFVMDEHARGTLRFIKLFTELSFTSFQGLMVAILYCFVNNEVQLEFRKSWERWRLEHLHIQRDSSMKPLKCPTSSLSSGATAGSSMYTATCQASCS

As for `CC[C@H](C)[C@H](NC(=O)C(C)(C)NC(=O)[C@H](Cc1ccc(O)cc1)NC(=O)[C@H](CC(=O)O)NC(=O)[C@H](CO)NC(=O)[C@@H](NC(=O)C(C)(Cc1ccccc1)NC(=O)[C@@H](NC(=O)CNC(=O)[C@H](CCC(=O)O)NC(=O)C(C)(C)NC(=O)[C@@H](N)Cc1ccc(O)cc1)[C@@H](C)O)[C@@H](C)O)C(=O)NC(C)(C)C(=O)N[C@@H](CC(C)C)C(=O)N[C@@H](CC(=O)O)C(=O)N[C@@H](CCCCN)C(=O)N[C@@H](CCC(N)=O)C(=O)N[C@@H](C)C(=O)N[C@@H](CCC(N)=O)C(=O)N[C@@H](C)C(=O)N[C@@H](CCC(=O)O)C(=O)N[C@@H](Cc1ccccc1)C(=O)N[C@H](C(=O)N[C@@H](CCCCNC(=O)COCCOCCNC(=O)COCCOCCNC(=O)COCCOCCNC(=O)CC[C@H](NC(=O)CCCCCCCCCCCCCCCCCCCCC(=O)O)C(=O)O)C(=O)N[C@@H](Cc1c[nH]c2ccccc12)C(=O)N[C@@H](CC(C)C)C(=O)N[C@@H](CC(C)C)C(=O)N[C@@H](CCCCN)C(=O)NCC(=O)NCC(=O)N1CCC[C@H]1C(=O)N[C@@H](CO)C(=O)N[C@@H](CO)C(=O)NCC(=O)N[C@@H](C)C(=O)N1CCC[C@H]1C(=O)N1CCC[C@H]1C(=O)N1CCC[C@H]1C(=O)N[C@@H](CO)C(=O)N[C@@H](CCCCN)C(N)=O)C(C)C` (stereo partly drawn) [P016], the MRT inf turned out to be 72.9 ± 10.9 h in [1] (iv, 12.5 nmol/kg); 101 ± 19.2 h in [1] (sc, 25 nmol/kg); 26.6 h in data set [2] (iv); 35.9 h in data set [2] (sc); 31.1 ± 1 h in data set [3]; 108 ± 23.2 h in [6] (dog, in vivo, sc). For the same compound, the MRT last in data set [1] (iv, 12.5 nmol/kg) amounted to 65.3 ± 8.85 h; in [1] (sc, 25 nmol/kg), 96.5 ± 15.9 h; in [2] (iv), 19.9 h; in data set [2] (sc), 26 h; in data set [3], 28.1 ± 1.12 h; in data set [6] (dog, in vivo, sc), 44.8 ± 4.17 h. The T1/2 in data set [1] (iv, 12.5 nmol/kg) was determined as 59.81 ± 8.95 h; in data set [1] (sc, 25 nmol/kg) it was 60.40 ± 12.80 h; in data set [3] it was 14.1 ± 0.153 h; in [6] (dog, in vivo, sc) it was 69.32 h. The MTD was 1.92 µmol/kg in [4] (MTD for 2 weeks, twice a week) and above 10 mg/kg in data set [4] (continuously administered twice a week for 2 weeks). Further, the “Toxicokinetic: Cmax and AUC versus dose” value in the data set on SD male rats (male SD rats, 1, 3, 10 mg/kg) was “increase nearly proportionally to the dose”. The “Toxicokinetic: accumulation” value in the data set on SD male rats (male SD rats, continuously administered twice a week for 2 weeks) is “no substantial accumulation”. The “Food Intake” value with SD male rats (setting [7]) is reported as “dose-dependent decrease”. Besides, the “Gross Anatomy” value in the data set with SD male rats (setting [7]) was “no abnormalities are found”. Also, the “Safety Window (based on dosage)” value in the data set on SD male rats (rat MTD for 2 weeks vs efficacy dose in db/db mice) is reported as 1282. The “heart rate recovery time” value in data set [5] is 72 to 120 h. Moreover, the “increase in HR” value in [5] is recorded as “lower than that for Tirepatide”. Moreover, the AUC(0-t) in data set [6] (beagle dogs, single subcutaneous administration, plasma) worked out at 29925 ng·h/mL.
Turning to `CC[C@H](C)[C@H](NC(=O)C(C)(C)NC(=O)[C@H](Cc1ccc(O)cc1)NC(=O)[C@H](CC(=O)O)NC(=O)[C@H](CO)NC(=O)[C@@H](NC(=O)C(C)(Cc1ccccc1)NC(=O)[C@@H](NC(=O)CNC(=O)[C@H](CCC(=O)O)NC(=O)C(C)(C)NC(=O)[C@@H](N)Cc1ccc(O)cc1)[C@@H](C)O)[C@@H](C)O)C(=O)NC(C)(C)C(=O)N[C@@H](CC(C)C)C(=O)N[C@@H](CC(=O)O)C(=O)N[C@@H](CCCCN)C(=O)N[C@@H](CCC(N)=O)C(=O)N[C@@H](C)C(=O)N[C@@H](CCC(N)=O)C(=O)N[C@@H](C)C(=O)N[C@@H](CCC(=O)O)C(=O)N[C@@H](Cc1ccccc1)C(=O)N[C@H](C(=O)N[C@@H](CCCCNC(=O)COCCOCCNC(=O)COCCOCCNC(=O)CC[C@H](NC(=O)CC[C@H](NC(=O)CC[C@H](NC(=O)CCCCCCCCCCCCCCCCC(=O)O)C(=O)O)C(=O)O)C(=O)O)C(=O)N[C@@H](Cc1c[nH]c2ccccc12)C(=O)N[C@@H](CC(C)C)C(=O)N[C@@H](CC(C)C)C(=O)N[C@@H](CCCCN)C(=O)NCC(=O)NCC(=O)N1CCC[C@H]1C(=O)N[C@@H](CO)C(=O)N[C@@H](CO)C(=O)NCC(=O)N[C@@H](C)C(=O)N1CCC[C@H]1C(=O)N1CCC[C@H]1C(=O)N1CCC[C@H]1C(=O)N[C@@H](CO)C(=O)N[C@@H](CCCCN)C(N)=O)C(C)C` (stereo partly drawn) [P015], the “Hypoglycemic Duration” value in the data set on db/db mice is listed as 32 h. Besides, the “GLP-1R Ki ratio” value on human GLP-1 receptor is 0.17. In data set [3], this compound gave an MRT inf of 31.4 ± 1.35 h and an MRT last of 26.8 ± 0.557 h.
